Laboratory results published in PubChem BioAssay (NCI).
“And” between values parts separate entries of the source, which are not always exact repeats. Equal values may be shown once.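 Cells were grown in 96-well plates and exposed to each compound for 48 hours at five concentrations; endpoints were interpolated linearly between bracketing concentrations, or set to the highest concentration if not reached. GI50: concentration for 50% inhibition of growth. TGI denotes the concentration required for complete inhibition of growth.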

How the values were obtained:
Assay in all cases: NCI anticancer screen, dose series, 48 h; in the data active = GI50 below about 0.43 µM; inactive = the rest
[1] = test system: SNB-78 CNS
[2] = test system: OVCAR-8 ovarian
[3] = test system: NCI-H23 lung
[4] = test system: UACC-62 melanoma
[5] = test system: OVCAR-3 ovarian
[6] = test system: HOP-62 NSCLC
[7] = test system: KM12 colon
[8] = test system: SK-MEL-28 melanoma
[9] = test system: SF-295 CNS
[10] = test system: SNB-75 CNS
[11] = test system: LOX IMVI melanoma
[12] = test system: HCT-15 colon
[13] = test system: SNB-19 CNS
[14] = test system: KM20L2 colon
[15] = test system: HT29 colon
[16] = test system: SK-OV-3 ovarian
[17] = test system: DLD-1 colon
[18] = test system: UACC-257 melanoma
[19] = test system: HCT-116 colon
[20] = test system: DMS 273 small cell lung
[21] = test system: EKVX NSCLC
[22] = test system: HCC-2998 colon
[23] = test system: A549 NSCLC
[24] = test system: HL-60(TB) leukemia
[25] = test system: MOLT-4 leukemia
[26] = test system: XF 498 CNS
[27] = test system: SW-620 colon
[28] = test system: SR leukemia
[29] = test system: HOP-92 NSCLC
[30] = test system: M14 melanoma
[31] = test system: NCI-H522 lung
[32] = test system: SK-MEL-2 melanoma
[33] = test system: CCRF-CEM leukemia
[34] = test system: RXF 393 renal
[35] = test system: NCI-H460 lung
[36] = test system: TK-10 renal
[37] = test system: 786-0 renal
[38] = test system: COLO 205 colon
[39] = test system: IGROV1 ovarian
[40] = test system: U251 CNS
[41] = test system: DMS 114 small cell lung
[42] = test system: SK-MEL-5 melanoma
[43] = test system: ACHN renal
[44] = test system: SN12C renal
[45] = test system: HOP-18 NSCLC
[46] = test system: SF-268 CNS
[47] = test system: UO-31 renal
[48] = test system: M19-MEL melanoma
[49] = test system: MALME-3M melanoma
[50] = test system: CAKI-1 renal
[51] = test system: NCI-H226 lung
[52] = test system: K-562 leukemia
[53] = test system: SF-539 CNS
[54] = test system: A498 renal
[55] = test system: OVCAR-4 ovarian
[56] = test system: RPMI-8226 leukemia
[57] = test system: T-47D breast
[58] = test system: MDA-MB-231 breast
[59] = test system: MDA-MB-435
[60] = test system: MDA-N
[61] = test system: MCF7 breast
[62] = test system: BT-549 breast
[63] = test system: DU-145 prostate
[64] = test system: HS 578T breast
[65] = test system: LXFL 529 NSCLC
[66] = test system: OVCAR-5 ovarian
[67] = test system: PC-3 prostate

Cc1c2ccccc2c(=O)n2c(-c3ccccn3)cccc12
> 100 µM: TGI [1] | TGI [2] | TGI [3] | TGI [4] | TGI [5] | TGI [6] | TGI [7] | TGI [8] | TGI [9] | TGI [10] | TGI [11] | TGI [12] | TGI [13] | TGI [14] | TGI [15] | TGI [16] | TGI [17] | TGI [18] | TGI [19] | TGI [20] | TGI [21] | TGI [22] | TGI [23] | TGI [24] | TGI [25] | TGI [26] | TGI [27] | TGI [28] | TGI [29] | TGI [30] | TGI [31] | TGI [32] | TGI [33] | TGI [34] | TGI [35] | TGI [36] | TGI [37] | TGI [38] | TGI [39] | TGI [40] | TGI [41] | TGI [42] | TGI [43] | TGI [44] | TGI [45] | TGI [46] | TGI [47] | TGI [48] | TGI [49] | TGI [50] | TGI [51] | TGI [52] | TGI [53] | TGI [54] | TGI [55] | TGI [56]

O=c1cc(-c2cccc(Cl)c2)[nH]c2cc3c(cc12)OCO3
39.3 µM and 22.4 µM: TGI [36]
10.3 µM: TGI [40]
17.1 µM: TGI [62]
1.74 µM: TGI [64]
3.05 µM: TGI [16]
75 µM and > 100 µM: TGI [25] | TGI [47]
0.193 µM: TGI [59]
2.73 µM: TGI [65]
7.5 µM and 1.39 µM: TGI [24]
13.8 µM: TGI [26]
75 µM and 12.5 µM: TGI [44]
23.4 µM and 23.8 µM: TGI [37]
75 µM and 9.8 µM: TGI [34]
8.57 µM: TGI [17]
4.97 µM: TGI [22]
21.8 µM: TGI [29]
> 100 µM: TGI [61] | TGI [18] | TGI [27] | TGI [35] | TGI [66] | TGI [67] | TGI [55] | TGI [56]
0.164 µM and 0.626 µM: GI50 [34]
75 µM and 13.9 µM: TGI [30]
2.85 µM: TGI [6]
0.556 µM: TGI [4]
75 µM and 90.9 µM: TGI [43]
1.08 µM and 1.56 µM: TGI [53]
54.7 µM: TGI [28]
2.81 µM: TGI [12]
10.4 µM: TGI [38]
36.9 µM and 29.6 µM: TGI [54]
75 µM: TGI [20] | TGI [48]
0.582 µM and 0.72 µM: TGI [32]
75 µM and 10.2 µM: TGI [13]
75 µM and 22.6 µM: TGI [33]
34.4 µM: TGI [45]
35 µM and 18.1 µM: TGI [2]
4.23 µM: TGI [41]
0.712 µM: TGI [10]
9.41 µM and 15.4 µM: TGI [15]
0.863 µM: TGI [63]
65.3 µM: TGI [57]
0.158 µM: TGI [60]
75 µM and 18.1 µM: TGI [23]
3.45 µM and 13.2 µM: TGI [3]
38.8 µM and 40.2 µM: TGI [11]
11.5 µM: TGI [58]
active: GI50 [13] 0.363 µM | GI50 [24] 0.263 µM | GI50 [30] 0.248 µM | GI50 [42] 0.164 µM | GI50 [49] 0.31 µM | GI50 [53] 0.288 µM
28.1 µM: TGI [7]
inactive: GI50 [2] 0.76 µM | GI50 [3] 3.37 µM | GI50 [11] 0.434 µM | GI50 [15] 3.19 µM | GI50 [23] 0.829 µM | GI50 [25] 0.654 µM | GI50 [37] 0.544 µM | GI50 [39] 3.54 µM | GI50 [43] 0.565 µM | GI50 [44] 0.522 µM | GI50 [47] 0.743 µM | GI50 [54] 1.04 µM | GI50 [55] 43 µM
2.8 µM: TGI [31]

CCOc1ccc2c(c1)[n+]([O-])c(-c1ccccc1)c(N)[n+]2[O-]
81.8 µM: TGI [38]
32.2 µM: TGI [31]
89.4 µM: TGI [50]
> 100 µM: TGI [2] | TGI [4] | TGI [5] | TGI [6] | TGI [7] | TGI [8] | TGI [9] | TGI [10] | TGI [11] | TGI [12] | TGI [13] | TGI [14] | TGI [15] | TGI [16] | TGI [17] | TGI [18] | TGI [20] | TGI [21] | TGI [22] | TGI [23] | TGI [24] | TGI [25] | TGI [26] | TGI [27] | TGI [30] | TGI [32] | TGI [33] | TGI [65] | TGI [35] | TGI [36] | TGI [37] | TGI [39] | TGI [40] | TGI [41] | TGI [43] | TGI [44] | TGI [45] | TGI [46] | TGI [47] | TGI [48] | TGI [49] | TGI [51] | TGI [52] | TGI [66] | TGI [53] | TGI [54] | TGI [55] | TGI [56]
51.5 µM: TGI [42]
91.3 µM: TGI [3]
